According to patent publication US9475816B2, “Substituted-1,4-dihydropyrazolo[4,3-b]indoles” (TAKEDA PHARMACEUTICAL COMPANY LIMITED, priority 2012, dated 2016):

Key:
human MetAP2 enzyme [1] = target: T1, human MetAP2 enzyme (Homo sapiens, UniProt P50579); assay: MetAP2 enzyme assay, MetAP2 enzyme complexed with manganese ions; conditions: MetAP2 Mn pIC50, 10 μM MnCl2; -log(IC50), IC50 molar
Experimental: DNA encoding the full-length sequence of human MetAP2 enzyme is amplified by PCR and cloned into a pFastBac expression vector (Invitrogen). Recombinant baculovirus incorporating the MetAP2 construct is generated by transposition using the Bac-to-Bac system (Invitrogen). The expression of recombinant protein is carried out by infection of Spodoptera frugiperda Sf9 cells (Invitrogen) in 5L Wave Bioreactors (Wave Biotech). Recombinant protein is isolated from cellular extracts by binding to an SP Hitrap Fast Flow or SP Sepharose (Sigma) column, and the protein is eluted using a NaCl gradient. Partially purified extracts of MetAP2 are further purified by an AKTA FPLC over a Superdex-200 column (GE). The purity of MetAP2 protein is determined on denaturing SDS-PAGE gel.
The results for each well are expressed as percent inhibition and calculated using the equation:

human MetAP2 enzyme [2] = target: T1, human MetAP2 enzyme; assay: MetAP2 enzyme assay, MetAP2 enzyme complexed with cobalt ions; conditions: MetAP2 Co pIC50, 10 μM CoCl2; -log(IC50), IC50 molar

T1 sequence (P50579 whole entry): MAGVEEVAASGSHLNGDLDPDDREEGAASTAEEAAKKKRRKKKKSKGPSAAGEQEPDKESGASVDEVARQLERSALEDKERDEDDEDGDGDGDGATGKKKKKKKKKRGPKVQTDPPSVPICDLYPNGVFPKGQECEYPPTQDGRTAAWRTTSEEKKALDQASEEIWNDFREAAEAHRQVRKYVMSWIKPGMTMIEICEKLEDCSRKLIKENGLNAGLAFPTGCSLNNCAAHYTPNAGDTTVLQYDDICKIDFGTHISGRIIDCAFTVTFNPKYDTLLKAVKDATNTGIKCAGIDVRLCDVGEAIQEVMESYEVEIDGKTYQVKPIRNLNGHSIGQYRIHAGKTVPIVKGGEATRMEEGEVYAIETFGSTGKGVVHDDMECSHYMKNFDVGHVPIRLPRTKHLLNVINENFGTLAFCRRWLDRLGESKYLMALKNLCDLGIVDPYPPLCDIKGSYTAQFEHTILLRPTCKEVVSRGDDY

Compound	IC50 (human MetAP2 enzyme [1]) [nM]	IC50 (human MetAP2 enzyme [2]) [nM]
CN1CCN(C(=O)c2ccc(Cn3c4ccc(F)cc4c4[nH]ncc43)cc2)CC1 [Example 53, (4-((7-Fluoropyrazolo[4,3-b]indol-4(1H)-yl)methyl)phenyl)(4-methylpiperazin-1-yl)methanone]	79.4	50.1
Cc1nc(C(=O)NC2CC2)ccc1-n1c2ccc(F)cc2c2[nH]ncc21 [Example 101, N-Cyclopropyl-5-(7-fluoropyrazolo[4,3-b]indol-4(1H)-yl)-6-methylpicolinamide]	10	10
Cc1nc(C(=O)NC2(CO)CC2)ccc1-n1c2ccc(F)cc2c2[nH]ncc21 [Example 100, 5-(7-Fluoropyrazolo[4,3-b]indol-4(1H)-yl)-N-(1-(hydroxymethyl)cyclopropyl)-6-methylpicolinamide]	12.6	12.6
Cc1nc(N2CCN(C)CC2)ccc1-n1c2ccc(F)cc2c2[nH]ncc21 [Example 7, 7-Fluoro-4-(2-methyl-6-(4-methylpiperazin-1-yl)pyridin-3-yl)-1,4-dihydropyrazolo[4,3-b]indole]	12.6	15.8
Cc1nc(C(=O)NC[C@@H](C)O)ccc1-n1c2ccc(F)cc2c2[nH]ncc21 [Example 123, 5-(7-Fluoropyrazolo[4,3-b]indol-4(1H)-yl)-N—((R)-2-hydroxypropyl)-6-methylpicolinamide]	6.31	7.94
Cc1cc2cn[nH]c2cc1-n1c2ccc(F)cc2c2[nH]ncc21 [Example 26, 7-Fluoro-4-(5-methyl-1H-indazol-6-yl)-1,4-dihydropyrazolo[4,3-b]indole]	7.94	10
CN1CCN(c2cc(-n3c4ccc(F)cc4c4[nH]ncc43)ccn2)CC1 [Example 8, 7-Fluoro-4-(2-(4-methylpiperazin-1-yl)pyridin-4-yl)-1,4-dihydropyrazolo[4,3-b]indole]	5.01	25.1
Cn1nc(C(N)=O)cc1-n1c2ccc(F)cc2c2[nH]ncc21 [Example 48, 5-(7-Fluoropyrazolo[4,3-b]indol-4(1H)-yl)-1-methyl-1H-pyrazole-3-carboxamide]	12.6	15.8
Cc1nc(N2CCO[C@@H](CO)C2)ncc1-n1c2ccc(F)cc2c2[nH]ncc21 [Example 77, ((2R)-4-(5-(7-Fluoropyrazolo[4,3-b]indol-4(1H)-yl)-4-methylpyrimidin-2-yl)morpholin-2-yl)methanol]	10	7.94
Cc1nc(N2CC[C@@H](F)C2)ncc1-n1c2ccc(F)cc2c2[nH]ncc21 [Example 36, 7-Fluoro-4-(2-((R)-3-fluoropyrrolidin-1-yl)-4-methylpyrimidin-5-yl)-1,4-dihydropyrazolo[4,3-b]indole]	63.1	39.8
Cc1ncncc1-n1c2ccc(F)cc2c2[nH]ncc21 [Example 49, 7-Fluoro-4-(4-methylpyrimidin-5-yl)-1,4-dihydropyrazolo[4,3-b]indole]	31.6	63.1
Fc1ccc2c(c1)c1[nH]ncc1n2-c1cnn2c1CNCC2 [Example 25, 7-Fluoro-4-(4,5,6,7-tetrahydropyrazolo[1,5-a]pyrazin-3-yl)-1,4-dihydropyrazolo[4,3-b]indole]	12.6	25.1
Cc1cc2cnn(C)c2cc1-n1c2ccc(F)cc2c2[nH]ncc21 [Example 14, 4-(1,5-Dimethyl-1H-indazol-6-yl)-7-fluoro-1,4-dihydropyrazolo[4,3-b]indole]	7.94	7.94
Cc1nc(N2CC[C@H](F)C2)ncc1-n1c2ccc(F)cc2c2[nH]ncc21 [Example 34, 7-Fluoro-4-(2-((S)-3-fluoropyrrolidin-1-yl)-4-methylpyrimidin-5-yl)-1,4-dihydropyrazolo[4,3-b]indole]	79.4	63.1
Cc1cc(C(=O)N2CCOCC2)ncc1-n1c2ccc(F)cc2c2[nH]ncc21 [Example 106, (5-(7-Fluoropyrazolo[4,3-b]indol-4(1H)-yl)-4-methylpyridin-2-yl)(morpholino)methanone]	100	100
CCN1CCn2ncc(-n3c4ccc(F)cc4c4[nH]ncc43)c2C1 [Example 112, 4-(5-Ethyl-4,5,6,7-tetrahydropyrazolo[1,5-a]pyrazin-3-yl)-7-fluoro-1,4-dihydropyrazolo[4,3-b]indole]	20	12.6
Cc1nn(C)c(C)c1-n1c2ccc(F)cc2c2[nH]ncc21 [Example 62, 7-Fluoro-4-(1,3,5-trimethyl-1H-pyrazol-4-yl)-1,4-dihydropyrazolo[4,3-b]indole]	31.6	25.1
Cc1nc(NC[C@@H](C)O)ccc1-n1c2ccc(F)cc2c2[nH]ncc21 [Example 12, (2R)-1-((5-(7-Fluoropyrazolo[4,3-b]indol-4(1H)-yl)-6-methylpyridin-2-yl)amino)propan-2-ol]	5.01	12.6
COCCn1cnc2cc(-n3c4ccc(F)cc4c4[nH]ncc43)c(C)nc21 [Example 31, 7-Fluoro-4-(3-(2-methoxyethyl)-5-methyl-3H-imidazo[4,5-b]pyridin-6-yl)-1,4-dihydropyrazolo[4,3-b]indole]	10	7.94
Cc1nc(N2CC[C@H](C(N)=O)C2)ncc1-n1c2ccc(F)cc2c2[nH]ncc21 [Example 21, (3S)-1-(5-(7-Fluoropyrazolo[4,3-b]indol-4(1H)-yl)-4-methylpyrimidin-2-yl)pyrrolidine-3-carboxamide]	7.94	15.8
Cc1nc(C(=O)NCC(N)=O)ccc1-n1c2ccc(F)cc2c2[nH]ncc21 [Example 124, N-(2-Amino-2-oxoethyl)-5-(7-fluoropyrazolo[4,3-b]indol-4(1H)-yl)-6-methylpicolinamide]	12.6	10
Cc1nc(N2CCC[C@H](O)C2)ncc1-n1c2ccc(F)cc2c2[nH]ncc21 [Example 37, (3S)-1-(5-(7-Fluoropyrazolo[4,3-b]indol-4(1H)-yl)-4-methylpyrimidin-2-yl)piperidin-3-ol]	6.31	6.31
Cc1nc(N[C@H](C)CO)ncc1-n1c2ccc(F)cc2c2[nH]ncc21 [Example 75, (2R)-2-((5-(7-Fluoropyrazolo[4,3-b]indol-4(1H)-yl)-4-methylpyrimidin-2-yl)amino)propan-1-ol]	5.01	7.94
Cc1nc2[nH]cnc2cc1-n1c2cc(F)c(F)cc2c2[nH]ncc21 [Example 130, 6,7-Difluoro-4-(5-methyl-3H-imidazo[4,5-b]pyridin-6-yl)-1,4-dihydropyrazolo[4,3-b]indole]	12.6	10
Cc1nc(N2CC[C@@H](O)C2)ccc1-n1c2ccc(F)cc2c2[nH]ncc21 [Example 6, (3R)-1-(5-(7-Fluoropyrazolo[4,3-b]indol-4(1H)-yl)-6-methylpyridin-2-yl)pyrrolidin-3-ol]	6.31	6.31
Cc1nc(NC[C@@H](C)O)ncc1-n1c2ccc(F)cc2c2[nH]ncc21 [Example 93, (2R)-1-((5-(7-Fluoropyrazolo[4,3-b]indol-4(1H)-yl)-4-methylpyrimidin-2-yl)amino)propan-2-ol]	6.31	7.94
Cc1cc(C(=O)NC2(CO)CC2)ncc1-n1c2ccc(F)cc2c2[nH]ncc21 [Example 104, 5-(7-Fluoropyrazolo[4,3-b]indol-4(1H)-yl)-N-(1-(hydroxymethyl)cyclopropyl)-4-methylpicolinamide]	12.6	10
